Laboratory results: patent US7112559B1, “Thickened quaternary ammonium compound sanitizer” (Ecolab Inc., priority 2005, dated 2006)

How the values were obtained:
[1] = system: Staphylococcus aureus, ATCC # 6538; assay: Bactericidal efficacy vs. chlorine standard (available chlorine equivalence); type: cell-based; set-up: key to Growth in Test Tube 8 / Growth in Test Tube 9 / Growth in Test Tube 10 / Growth in Test Tube 1 / Growth in Test Tube 2 / Growth in Test Tube 3 / Growth in Test Tube 4 / Growth in Test Tube 5 / Growth in Test Tube 6 / Growth in Test Tube 7: (+) = growth; (−) = no growth; conditions: S. aureus
Experimental: (§1) Example 2 compared the bactericidal efficacy of the thickened quaternary ammonium compound sanitizer composition (Formula 7) to that of a known concentration of chlorine. […] The mix order for Formula 7 is as follows: (1) water; (2) propylene glycol; (3) LonzaGuard; (4) FD&C Red #40; (5) Methocel; (6) Triethanolamine; and (7) Ethanol. Formula 7 and the chlorine standard were tested against Staphylococcus aureus, ATCC # 6538 and Salmonella typhi, ATCC # 6539. The chlorine standard was prepared by adding 0.1 ml of a 5% NaOCl stock solution (refrigerated Clorox® bleach) to 100 ml of sterile phosphate buffer solution to create a 50–55 ppm available chlorine concentration.
(§2) For the chlorine standard test, 0.05 ml of the test culture was added to a test tube with 50 ppm available chlorine. The test tube was placed in a 20° C. water bath. After 1 minute, the solution was transferred to test tube 1 with 10 ml of Fluid Thioglycollate medium (commercially available from Becton Dickinson (Sparks, Md.)). These steps were repeated for nine test tubes.
(§3) For Formula 7, the same series of test tubes used for the available chlorine test was used to test the quaternary ammonium compound sanitizer composition. 0.05 ml of test culture was added to Formula 7. The test tube was placed in a 20° C. water bath. After 1 minute, the solution was transferred to a test tube with 10 ml of Letheen broth in place of the Fluid Thioglycollate medium.
(§4) The formulas in Table 4 were tested with Staphylococcus aureus, ATCC # 6538 and Salmonella typhi, ATCC # 6539. […] A “+” sign means that the test tube had bacteria growth.
(§5) Equivalency is met when the sample tubes have an absence of growth in as many tubes as the chlorine standard.

[2] = system: Salmonella typhi, ATCC # 6539; assay: as above; type: cell-based; set-up: key to Growth in Test Tube 8 / Growth in Test Tube 9 / Growth in Test Tube 10 / Growth in Test Tube 1 / Growth in Test Tube 2 / Growth in Test Tube 3 / Growth in Test Tube 4 / Growth in Test Tube 5 / Growth in Test Tube 6 / Growth in Test Tube 7: (+) = growth; (−) = no growth; conditions: S. typhi
Experimental: as §1, §2, §3, §4, §5

[3] = text does not separate the organisms

## [Na+].[O-]Cl [NaOCl]
[1]; 1 minute, 20° C.
  Growth in Test Tube 1: −
  Growth in Test Tube 2: −
  Growth in Test Tube 3: +
  Growth in Test Tube 4: +
  Growth in Test Tube 5: +
  Growth in Test Tube 6: +
  Growth in Test Tube 7: +
  Growth in Test Tube 8: +
  Growth in Test Tube 9: +
  Growth in Test Tube 10: +
[1]; [3]
  Growth in tubes 1–10: growth in tubes 3–10
[2]; 1 minute, 20° C.
  Growth in Test Tube 1: −
  Growth in Test Tube 2: −
  Growth in Test Tube 3: +
  Growth in Test Tube 4: +
  Growth in Test Tube 5: +
  Growth in Test Tube 6: +
  Growth in Test Tube 7: +
  Growth in Test Tube 8: +
  Growth in Test Tube 9: +
  Growth in Test Tube 10: +
[2]; [3]
  Growth in tubes 1–10: growth in tubes 3–10
